Results published in patent publication US8758988B2, “Cryopreservation of articular cartilage” (The Governors of the University of Alberta, priority 2009, dated 2014).
Where two headings read alike, the source gives them in different places.

Assays:
[1] = Arrhenius fit of CPA diffusion coefficients (constants and activation energies); type: physicochemical; settings: for Ea (activation energy) / Dcwo (Arrhenius constant): Table (1), Arrhenius fit of diffusion coefficients; for Dcwo (Arrhenius constant): R = 0.001986 Kcal/(mol. K)
Description: Full thickness AC (on 5-10 mm bone base) is harvested from the sample tissue using a hand-held coring device and held at 4° C. in 1× Dulbecco's phosphate-buffered saline (PBS) solution (pH 7.1) (Gibco Invitrogen, Carlsbad, Calif.). Each osteochondral dowel (OCD) is assigned to one of four CPA treatment groups [DMSO, PG, EG, glycerol (all at 6.5M, in 1×PBS)] and one of 11 incubation times (1 second, 1, 2, 5, 10, 15, 30, 60, 120, 180 minutes, 24 hours), as well as one of three temperatures (4, 22, 37° C.). Each combination of treatment, time, and temperature is repeated at least three times.
The tissue sample is isolated by scalpel and the tissue returned to 1×PBS for 5 min, then blotted lightly using Kimwipes® tissue (Kimberly-Clark, Roswell, Ga.) to remove excess fluid from the sample surface, weighed (W1), and immediately immersed in 5 ml of CPA solution for the specified incubation time at the specified temperature. After incubation, the sample is removed from the solution, blotted lightly and weighed for a second time (W2). The sample is then placed into a 35×10 mm cell culture dish (Corning Inc., Corning, N.Y.) containing 4 mL of 1×PBS, fully immersed in the PBS and the dish sealed with Parafilm® (American National Can, Chicago, Ill.) and held for 24 h at 22° C. under dark conditions to allow the CPA within the AC disc to fully equilibrate with the surrounding PBS solution. After 24 h, the CPA/PBS solution is mixed using a pipettor and a 1 mL sample is taken into a 1.5 mL microcentrifuge tube (Thermo Fisher Scientific, Waltham, Mass.). From this sample, 50 μL is placed into a μOSMETTE™ micro-osmometer (Precision Systems, Natick, Mass.) to determine its osmolality (Osm).
The values of the diffusion coefficients for the single CPA diffusion in water were used in the calculations. The values of the diffusion coefficients were calculated before, by fitting Fick's law to the experimental data, as explained in the preceding section of this patent labeled “Permeation Kinetics of CPAs in AC matrix”.
[formula] at x=0, and CCPA=C* at x=THK, where C* is the concentration of the CPA in the external bath at each step of the protocol. The temperature dependence of the diffusion coefficients was calculated by fitting an Arrhenius equation to the values of diffusion coefficients obtained for each CPA at 3 different temperatures as in the preceding section of this patent labeled “Permeation Kinetics of CPAs in AC matrix”. The values of diffusion coefficients were taken from Jomha et al (N M Jomha, G K Law, A Abazari, K Rekieh, J A W Elliott, L E McGann. Permeation of several cryoprotectant agents into porcine articular cartilage. Cryobiology 58(1), 110-114, 2009). For F (formamide), 2 values for diffusion coefficients of formamide in water at 2 different temperatures were extracted from the literature:
Then, these values were fitted to an Arrhenius equation to calculate the constant and activation energy for formamide. As an example, the increase in the minimum DMSO concentration in cartilage, diffusing from a bath of 3 M DMSO solution, at −10° C., was calculated by solving Eqn. (8) as the following:
First, the diffusion coefficient of DMSO in water at −10° C. was calculated from the results of the Arrhenius fit in Table (1). DDMSO(at T=−10° C.=263 K)=298.95×10^−9×exp(−3.9/0.001986/263)=1.71×10^−10 m^2/s

[2] = formamide in water, cited from earlier work

Row | SMILES | Ea (activation energy) [1] [kcal/mol] | Dcwo (Arrhenius constant) [1] | diffusion coefficient of DMSO in water ([1]; at T=−10° C.=263 K, calculated from the Arrhenius fit in Table (1)) | Diffusion coefficient (m^2/s) ([2]; Temperature 278.2 K) | Diffusion coefficient (m^2/s) ([2]; Temperature 298.15 K)
1 | C[S+](C)[O-] [D (DMSO), dimethyl sulfoxide] | 3.9 | 298.95 ×10^−9 m^2/s | 1.71×10^−10 m^2/s |  | 
2 | OCCO [E (EG), ethylene glycol] | 3.8 | 183.30 ×10^−9 m^2/s |  |  | 
3 | NC=O [F (Form), formamide] | 4.198 | 1903.510 ×10^−9 m^2/s |  | 0.95 × 10^−9 m^2/s | 1.58 × 10^−9 m^2/s
4 | OCC(O)CO [G (Gly), glycerol] | 5.6 | 208.03 ×10^−9 m^2/s |  |  | 
5 | CC(O)CO (stereo not shown) [P (PG), propylene glycol] | 6.63 | 16971.0 ×10^−9 m^2/s |  |  | 
